The record followed here is patent US7704995B2 (Exelixis, Inc., priority 2003, dated 2010).

pIC50: −log10 of the molar value.

One test has as its target T1, Chk1 (Homo sapiens, UniProt O14757).
T1 construct: purchased Upstate Biotechnology
T1 sequence (O14757 1-476): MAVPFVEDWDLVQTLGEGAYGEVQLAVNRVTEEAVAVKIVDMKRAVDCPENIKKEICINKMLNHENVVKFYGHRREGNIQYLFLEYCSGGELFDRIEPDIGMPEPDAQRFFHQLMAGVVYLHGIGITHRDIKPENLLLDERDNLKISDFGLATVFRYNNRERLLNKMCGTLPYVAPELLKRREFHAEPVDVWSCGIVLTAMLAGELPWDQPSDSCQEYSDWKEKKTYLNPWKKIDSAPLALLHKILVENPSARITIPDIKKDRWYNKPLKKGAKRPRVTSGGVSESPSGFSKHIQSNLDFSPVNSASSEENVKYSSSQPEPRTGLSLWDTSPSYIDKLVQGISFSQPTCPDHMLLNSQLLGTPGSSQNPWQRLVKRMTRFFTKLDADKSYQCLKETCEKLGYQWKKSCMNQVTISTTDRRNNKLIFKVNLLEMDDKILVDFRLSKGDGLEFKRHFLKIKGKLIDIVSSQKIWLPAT
In words: Chk1 kinase assay: incorporation of γ-33P ATP into immobilized myelin basic protein. Format: biochemical. The following applies: Table 11, Chk1 only; class symbols A-D; read-out: Chk1 IC50. On the procedure:
Chk1 and Chk2 assays were performed by measuring incorporation of γ-^33P ATP into immobilized myelin basic protein (MBP). High binding white 384 well plates (Greiner) were coated with MBP (Sigma #M-1891) by incubation of 60 ul/well of 20 μg/ml MBP in Tris-buffered saline (TBS; 50 mM Tris pH 8.0, 138 mM NaCl, 2.7 mM KCl) for 24 hours at 4° C. Plates were washed 3× with 100 μl TBS. Kinase reactions were carried out in a total volume of 34 μl in kinase buffer (5 mM Hepes pH 7.6, 15 mM NaCl, 0.01% bovine gamma globulin (Sigma #I-5506), 10 mM MgCl2, 1 mM DTT, 0.02% TritonX-100). Compound dilutions were performed in DMSO and added to assay wells to a final DMSO concentration of 1%. Each data point was measured in duplicate, and at least two duplicate assays were performed for each individual compound determination. Chk1 and Chk2 enzymes (Upstate Biotechnology) were added to final concentrations of 10 nM (Chk1) or 20 nM (Chk2). A mixture of unlabeled ATP and γ-^33P ATP was added to start the reaction (2×10^6 cpm of γ-^33P ATP per well (3000 Ci/mmole) and either 10 μM or 30 μM unlabeled ATP (for Chk1 and Chk2 assays respectively). The reaction was carried out for 1 hour at room temperature with shaking. Plates were washed 7× with TBS, followed by the addition of 50 μl/well scintillation fluid (Wallac). Plates were read using a Wallac Trilux counter. This is only one format of such assays, various other formats are possible, as known to those skilled in the art.
The above assay procedure can be used to determine the IC50 for inhibition and/or the inhibition constant Ki. The IC50 is defined as the concentration of compound required to reduce the enzyme activity by 50% under the conditions of the assay. […] The Ki for a compound may be determined from the IC50 based on three assumptions. First, only one compound molecule binds to the enzyme and there is no cooperativity. […] Third, the enzymatic rate of the enzyme-inhibitor complex is zero. The rate (i.e., compound concentration) data are fitted to the equation: […]
As usually defined, the pIC50 is the negative decadic logarithm of the IC50, by convention in mol/L. Turning to `Cc1ccc(F)c(CNC(=O)c2cccc(-c3cnc(N)c(C(=O)N[C@H]4CCCNC4)n3)c2)c1Cl` [Example 1013, 3-amino-6-[3-({[(2-chloro-6-fluoro-3-methylphenyl)methyl]amino}carbonyl)phenyl]-N-[(3S)-piperidin-3-yl]pyrazine-2-carboxamide], the pIC50 is greater than 7.30.
Same read-out and setting: next, `Nc1ncc(-c2cccc(C(=O)NCc3ccc(-c4cnns4)cc3)c2)nc1C(=O)N[C@H]1CCCNC1` [Example 845, 3-amino-N-[(3S)-piperidin-3-yl]-6-{3-[({[4-(1,2,3-thiadiazol-5-yl)phenyl]methyl}amino)carbonyl]phenyl}pyrazine-2-carboxamide]: greater than 7.30.
Still for that read-out and setting: next, `Nc1ncc(-c2cccc(C(=O)N[C@H]3c4ccccc4C[C@@H]3O)c2)nc1C(=O)N[C@H]1CCCCN(Cc2ccccc2)C1` [Example 969, 3-amino-6-[3-({[(1S,2S)-2-hydroxy-2,3-dihydro-1H-inden-1-yl]amino}carbonyl)phenyl]-N-[(3S)-1-(phenylmethyl)azepan-3-yl]pyrazine-2-carboxamide]: 5.00 to 6.00; `COc1ccccc1CNC(=O)c1cccc(-c2cnc(N)c(C(=O)N[C@H]3CCCNC3)n2)c1` [Example 855, 3-amino-6-{3-[({[2-(methyloxy)phenyl]methyl}amino)carbonyl]phenyl}-N-[(3S)-piperidin-3-yl]pyrazine-2-carboxamide]: greater than 7.30.
`CSc1ccc(CC(=O)Nc2cccc(-c3cnc(N)c(C(=O)N[C@H]4CCCNC4)n3)c2)cc1` [Example 889, 3-amino-6-[3-({[4-(methylthio)phenyl]acetyl}amino)phenyl]-N-[(3S)-piperidin-3-yl]pyrazine-2-carboxamide]: the pIC50 was greater than 7.30.
Same read-out and setting: next, `Nc1ncc(-c2cccc(CNC(=O)Nc3ccc4c(c3)OCCO4)c2)nc1C(=O)N[C@H]1CCCNC1` [Example 935, 3-amino-6-[3-({[(2,3-dihydro-1,4-benzodioxin-6-ylamino)carbonyl]amino}methyl)phenyl]-N-[(3S)-piperidin-3-yl]pyrazine-2-carboxamide]: greater than 7.30.
The same measure, in the same setting: then `Nc1ncc(-c2cccc(C(=O)NCCc3ccccc3)c2)nc1C(=O)N[C@H]1CCCNC1` [Example 878, 3-amino-6-(3-{[(2-phenylethyl)amino]carbonyl}phenyl)-N-[(3S)-piperidin-3-yl]pyrazine-2-carboxamide], with greater than 7.30; and `Nc1ncc(-c2cccc(CNS(=O)(=O)c3ccccc3OC(F)(F)F)c2)nc1C(=O)N[C@H]1CCCNC1` [Example 917, 3-amino-N-[(3S)-piperidin-3-yl]-6-(3-{[({2-[(trifluoromethyl)oxy]phenyl}sulfonyl)amino]methyl}phenyl)pyrazine-2-carboxamide], with 6.00 to 7.30.

The test is the same for the next values; noted with them: Table 11; Chk1 only; read-out: Chk1 IC50.
As for `CNC(=O)c1nc(-c2cccc(C(=O)NCc3ccccc3)c2)cnc1N` [Example 441, 3-Amino-6-(3-benzylcarbamoyl-phenyl)-pyrazine-2-carboxylic acid methylamide], the pIC50 is 6.00 to 7.30.
`CNC(=O)c1nc(-c2cccc(CN[C@@H]3CCc4ccccc4C3)c2)cnc1N` [Example 445, 3-amino-N-methyl-6-(3-{[(2R)-1,2,3,4-tetrahydronaphthalen-2-ylamino]methyl}phenyl)pyrazine-2-carboxamide]: the negative logarithm of the IC50 (pIC50) is greater than 7.30.
In the case of `CC(C)(C)OC(=O)N1CCC(NC(=O)c2nc(-c3cccc(C(=O)NCc4ccccc4)c3)cnc2N)CC1` [Example 562, 1,1-dimethylethyl 4-({[3-amino-6-(3-{[(phenylmethyl)amino]carbonyl}phenyl)pyrazin-2-yl]carbonyl}amino)piperidine-1-carboxylate], the pIC50 is no more than 5.00.
Regarding `Nc1ncc(-c2cccc(C(=O)NCc3ccccc3)c2)nc1C(=O)N1CCN(Cc2ccccc2)CC1` [Example 575, 3-(5-amino-6-{[4-(phenylmethyl)piperazin-1-yl]carbonyl}pyrazin-2-yl)-N-(phenylmethyl)benzamide], the pIC50 was no more than 5.00.
Consider `CNC(=O)c1nc(-c2cccc(CNC3Cc4ccc(Br)cc4C3)c2)cnc1N` (centres unmarked) [Example 456, 3-amino-6-(3-{[(5-bromo-2,3-dihydro-1H-inden-2-yl)amino]methyl}phenyl)-N-methylpyrazine-2-carboxamide], for which the pIC50 was 6.00 to 7.30.
In the case of `Nc1ncc(-c2cccc(C(=O)NCc3ccccc3)c2)nc1C(=O)NCCNC(=O)c1cccnc1Cl` [Example 664, 3-amino-N-(2-{[(2-chloropyridin-3-yl)carbonyl]amino}ethyl)-6-(3-{[(phenylmethyl)amino]carbonyl}phenyl)pyrazine-2-carboxamide], the negative logarithm of the IC50 (pIC50) is 5.00 to 6.00.
Same read-out and setting: then `CNC(=O)c1nc(-c2cccc(CNC3CCc4cc(O)ccc43)c2)cnc1N` (centres unmarked) [Example 513, 3-amino-6-(3-{[(5-hydroxy-2,3-dihydro-1H-inden-1-yl)amino]methyl}phenyl)-N-methylpyrazine-2-carboxamide], with 6.00 to 7.30; and `Nc1ncc(-c2cccc(CO)c2)nc1-c1nc(C2CCCCN2)n[nH]1` (centres unmarked) [Example 698, {3-[5-amino-6-(3-piperidin-2-yl-1H-1,2,4-triazol-5-yl)pyrazin-2-yl]phenyl}methanol], with no more than 5.00; and `CNC(=O)c1cc(-c2cccc(CNC3CCc4ccc(Br)cc43)c2)cnc1N` (centres unmarked) [Example 519, 2-amino-5-(3-{[(6-bromo-2,3-dihydro-1H-inden-1-yl)amino]methyl}phenyl)-N-methylpyridine-3-carboxamide], with 6.00 to 7.30.
Still for that read-out and setting: next, `CNC(=O)c1nc(-c2cccc(CN[C@H]3CCc4ccccc4C3)c2)cnc1N` [Example 454, 3-amino-N-methyl-6-(3-{[(2S)-1,2,3,4-tetrahydronaphthalen-2-ylamino]methyl}phenyl)pyrazine-2-carboxamide]: greater than 7.30.

Staying with this test, now noted: read-out: Chk1 IC50.
As for `CNC(=O)c1nc(-c2cccc(C(=O)NCc3ccc(Cl)cc3Cl)c2)cnc1N` [Example 100, 3-amino-6-[3-({[(2,4-dichlorophenyl)methyl]amino}carbonyl)phenyl]-N-methylpyrazine-2-carboxamide], the pIC50 is 6.00 to 7.30.
The same measure, in the same setting: then `CNC(=O)c1nc(-c2cccc(C(=O)NCC3CCCO3)c2)cnc1N` (centres unmarked) [Example 170, 3-amino-N-methyl-6-(3-{[(tetrahydrofuran-2-ylmethyl)amino]carbonyl}phenyl)pyrazine-2-carboxamide], with 5.00 to 6.00; and `CNC(=O)c1nc(-c2cccc(NC(=O)Nc3cccc(-c4cnc(N)c(C(=O)NC)n4)c3)c2)cnc1N` [Example 91, 6,6′-[(oxomethanediyl)bis(iminobenzene-3,1-diyl)]bis(3-amino-N-methylpyrazine-2-carboxamide)], with greater than 7.30; and `CCOC(=O)Nc1cccc(-c2cnc(N)c(C(=O)NC)n2)c1` [Example 319, ethyl (3-{5-amino-6-[(methylamino)carbonyl]pyrazin-2-yl}phenyl)carbamate], with 6.00 to 7.30.
On the same count and under the same terms, then `CNC(=O)c1nc(-c2cccc(C(=O)N[C@@H]3CCN(Cc4c(Cl)cccc4Cl)C3)c2)cnc1N` [Example 362, 3-amino-6-{3-[({(3R)-1-[(2,6-dichlorophenyl)methyl]pyrrolidin-3-yl}amino)carbonyl]phenyl}-N-methylpyrazine-2-carboxamide], with 6.00 to 7.30; and `CNC(=O)c1nc(-c2ccc(F)c(C(=O)NCc3ccccc3)c2)cnc1N` [Example 291, 3-amino-6-(4-fluoro-3-{[(phenylmethyl)amino]carbonyl}phenyl)-N-methylpyrazine-2-carboxamide], with 6.00 to 7.30; and `CNC(=O)c1nc(-c2cccc(C(=O)NCc3cccc(Cl)c3Cl)c2)cnc1N` [Example 274, 3-amino-6-[3-({[(2,3-dichlorophenyl)methyl]amino}carbonyl)phenyl]-N-methylpyrazine-2-carboxamide], with 6.00 to 7.30.
Same read-out and setting: next, `CNC(=O)c1nc(-c2cccc(C(=O)NCc3ccc(-c4ccccc4)cc3)c2)cnc1N` [Example 182, 3-amino-6-(3-{[(biphenyl-4-ylmethyl)amino]carbonyl}phenyl)-N-methylpyrazine-2-carboxamide]: greater than 7.30.
